What was measured:
Format in all cases: cell-based, human
[1] = system: SPAN-12; assay: Unstimulated whole blood flow cytometry, SPAN-12; settings: Mean ± SD
Procedure: (§1) The methodology employed was conventional aggregation induced by 5 μM ADP, 1 μg/ml collagen, 10 μM TRAP, whole blood aggregation with 1 μg/ml collagen, Ultegra, and PFA-100 Analyzers, expression of 14 intact, and TRAP-stimulated major receptors by whole blood flow cytometry were utilized to assess platelet activity after preincubation with escalating concentrations of E5555 (20 ng/ml, 50 ng/ml, and 100 ng/ml). The experiments were performed in healthy volunteers, CAD patients treated with ASA, and CAD patients treated with ASA and clopidogrel combination (n=10, for each group).
(§2) An Informed Consent was obtained from all volunteers. Drug users were excluded from data analysis. The study was approved by Quorum Institutional Review Board. All subjects underwent blood sampling after at least 30 minutes of rest and two or more hours of fasting. Blood (28 ml) was drawn between 8 and 10 a.m. in order to avoid any diurnal influence and sampled from an antecubital vein using a 21-gauge butterfly needle containing 3.2% sodium citrate (1:9 volume) after having discarded the first 1.5 ml of free running blood. Four Vacutainer tubes (7.0 ml) were collected for a total of 28 ml of whole blood-citrate mixture from each study participant. Chronologically, blood samples were delivered to the core laboratory facility within 45 minutes after drawing. Then all tubes of blood-citrate mixture were pooled. One portion of pooled blood (5 ml) was kept as an internal control and pretreated with the vehicle. The remaining blood (23 ml) was used for the in vitro exposure to E5555 at concentrations of 20 ng/ml, 50 ng/ml, and 100 ng/ml. […] The platelet aggregation studies, Rapid Analyzers measures, and flow cytometry preparations were initiated within no more than 110 minutes following the blood draw, incubation with the drug, and preparation of the samples.
(§3) Formation of platelet-leukocyte aggregates was assessed by dual labeling with pan-platelet marker (CD151), and then with CD14, the macrophage receptor for endotoxin lipopolysaccharides (PharMingen, and Coulter, San Diego, Calif., USA). The tubes were then covered with aluminum foil and incubated at 37° C. for 40 minutes with gentle rotation. After incubation, samples were immediately analyzed on a Becton Dickinson FACScan flow cytometer. The instrument was set up to measure forward light scatter, and FITC fluorescence. All parameters were collected using four-decade logarithmic amplification. The data was retrieved in list mode files and then analyzed. P selectin was expressed as percent positive cells. Other antigens were expressed as log mean fluorescence intensity.

[2] = system: P-selectin (CD62p); assay: Unstimulated whole blood flow cytometry, P-selectin; settings: for P-selectin (CD62p), % positive cells: unstimulated, Mean ± SD
Procedure: as §1, §2, §3

[3] = system: LAMP-1 (CD107a); assay: Unstimulated whole blood flow cytometry, LAMP-1; settings: for LAMP-1 (CD107a), Mean Fluorescence Intensity: unstimulated, Mean ± SD
Procedure: as §1, §2, §3

[4] = system: GPIb (CD42b); assay: Unstimulated whole blood flow cytometry, GPIb; settings: for GPIb (CD42b), Mean Fluorescence Intensity: unstimulated, Mean ± SD
Procedure: as §1, §2, §3

[5] = system: platelets; assay: Whole blood (impedance) aggregation with 1 μg/ml collagen; settings: Mean ± SD
Procedure: as §1, §2
Whole blood aggregation was determined using a Chronolog device 592A. The whole blood-citrate mixture was diluted 1:1 with 0.5 ml phosphate buffered saline and gently swirled. The sample then was allowed to warm to 37° C. for 5 minutes then transferred to the assay well. The electrode was then placed in the cuvette and the sample was stimulated with 1 μg/ml collagen. The change in electrical impedance was digitally recorded. Each whole blood sample was analyzed utilizing 2 different clinical devices: • (1) a Rapid Platelet-Function Assay (Ultegra®) (Accumetrics, Inc., San Diego, Calif.), which is a rapid platelet-function assay aspirin cartridge test with TRAP used as agonist. Polystyrene beads coated with fibrinogen are placed in a cartridge along with the peptide that activates thrombin receptor. Anticoagulated whole blood was added to the cartridge, and agglutination between platelets and coated beads was recorded. The data mirrors turbidimetric platelet aggregation and presumably reflects platelet glycoprotein IIb/IIIa blockade. Ultegra RPFA-TRAP Assay results were reported as Platelet Activation Units (PAU); and • (2) Platelet-Function Analyzer PFA-100 ™ (Dade Behring, Deerfield Ill.), which is a high shear-inducing analyzer that simulates primary hemostasis after injury to a small vessel under flow conditions. The device provides a constant negative pressure that aspirates whole blood, which comes into contact with the collagen, coated membrane and then passes through the aperture. The time required to obtain occlusion of the aperture is digitally recorded. The time to aperture occlusion (the closure time) is recorded in seconds and is inversely related to the degree of shear-induced platelet activation. We used ADP/Collagen cartridges in the index study. Both PFA-100 and Ultegra assays were performed in duplicate. An electronic quality control test was performed on each instrument daily prior to performing any patient samples.

[6] = E5555 20 ng/ml, Patients (ASA + C)
[7] = E5555 50 ng/ml, Patients (ASA + C)
[8] = E5555 100 ng/ml, Patients (ASA + C)
[9] = E5555 100 ng/ml, Patients (ASA)
[10] = overall summary, stimulation not stated

For Br.CCOc1cc2c(c(F)c1OCC)C(=N)N(CC(=O)c1cc(N3CCOCC3)c(OC)c(C(C)(C)C)c1)C2 [E5555, 1-(3-tert-butyl-4-methoxy-5-morpholinophenyl)-2-(5,6-diethoxy-7-fluoro-1-imino-1,3-dihydro-2H-isoindol-2-yl)ethanone hydrobromide], the “SPAN-12, Mean Fluorescence Intensity” value [1, 6] was 11 ± 4 MFI, the “SPAN-12, Mean Fluorescence Intensity” value ([1]; E5555 20 ng/ml, Patients (ASA)) was 14 ± 3 MFI and the “SPAN-12, Mean Fluorescence Intensity” value ([1]; E5555 20 ng/ml, Volunteers) was 19 ± 4 MFI. The “SPAN-12, Mean Fluorescence Intensity” value [1, 7] was 10 ± 6 MFI, the “SPAN-12, Mean Fluorescence Intensity” value ([1]; E5555 50 ng/ml, Patients (ASA)) was 11 ± 5 MFI and the “SPAN-12, Mean Fluorescence Intensity” value ([1]; E5555 50 ng/ml, Volunteers) was 19 ± 6 MFI. The “SPAN-12, Mean Fluorescence Intensity” value [1, 8] was 12 ± 7 MFI, the “SPAN-12, Mean Fluorescence Intensity” value [1, 9] was 13 ± 5 MFI and the “SPAN-12, Mean Fluorescence Intensity” value ([1]; E5555 100 ng/ml, Volunteers) was 18 ± 6 MFI. The “P selectin, effect in words” value [2, 10] was “not affected”, the “P-selectin (CD62p), % positive cells” value [2, 6] was 7.6 ± 2.0 % positive cells and the “P-selectin (CD62p), % positive cells” value ([2]; E5555 20 ng/ml, Patients (ASA)) was 9.7 ± 1.5 % positive cells. For the same compound, the “P-selectin (CD62p), % positive cells” value ([2]; E5555 20 ng/ml, Volunteers) was 10.8 ± 2.0 % positive cells, the “P-selectin (CD62p), % positive cells” value [2, 7] was 7.7 ± 2.2 % positive cells and the “P-selectin (CD62p), % positive cells” value ([2]; E5555 50 ng/ml, Patients (ASA)) was 10.1 ± 1.8 % positive cells. The “P-selectin (CD62p), % positive cells” value ([2]; E5555 50 ng/ml, Volunteers) was 12.3 ± 2.2 % positive cells, the “P-selectin (CD62p), % positive cells” value [2, 8] was 8.0 ± 11.5 % positive cells and the “P-selectin (CD62p), % positive cells” value [2, 9] was 10.7 ± 1.6 % positive cells. The “P-selectin (CD62p), % positive cells” value ([2]; E5555 100 ng/ml, Volunteers) was 11.4 ± 1.8 % positive cells, the “LAMP-1, effect in words” value [3, 10] was “not affected” and the “LAMP-1 (CD107a), Mean Fluorescence Intensity” value (shortened to “LAMP-1 (CD107a)”) [3, 6] was 4.2 ± 1.6 MFI. For the same compound, the “LAMP-1 (CD107a)” value ([3]; E5555 20 ng/ml, Patients (ASA)) was 4.3 ± 1.2 MFI, the “LAMP-1 (CD107a)” value ([3]; E5555 20 ng/ml, Volunteers) was 4.7 ± 0.5 MFI and the “LAMP-1 (CD107a)” value [3, 7] was 4.7 ± 1.3 MFI. For the same compound, the “LAMP-1 (CD107a)” value ([3]; E5555 50 ng/ml, Patients (ASA)) was 5.0 ± 1.7 MFI, the “LAMP-1 (CD107a)” value ([3]; E5555 50 ng/ml, Volunteers) was 4.6 ± 0.6 MFI and the “LAMP-1 (CD107a)” value [3, 8] was 4.8 ± 1.4 MFI. The “LAMP-1 (CD107a)” value [3, 9] was 4.3 ± 1.5 MFI, the “LAMP-1 (CD107a)” value ([3]; E5555 100 ng/ml, Volunteers) was 4.4 ± 1.0 MFI and the “GPIb expression, effect in words” value [4, 10] was “significant reduction”. The “GPIb (CD42b), Mean Fluorescence Intensity” value (shortened to “GPIb (CD42b)”) [4, 6] was 103 ± 7 MFI, the “GPIb (CD42b)” value ([4]; E5555 20 ng/ml, Patients (ASA)) was 106 ± 5 MFI and the “GPIb (CD42b)” value ([4]; E5555 20 ng/ml, Volunteers) was 162 ± 19 MFI. The “GPIb (CD42b)” value [4, 7] was 94 ± 12 MFI, the “GPIb (CD42b)” value ([4]; E5555 50 ng/ml, Patients (ASA)) was 109 ± 7 MFI and the “GPIb (CD42b)” value ([4]; E5555 50 ng/ml, Volunteers) was 145 ± 20 MFI. The “GPIb (CD42b)” value [4, 8] was 100 ± 15 MFI, the “GPIb (CD42b)” value [4, 9] was 111 ± 10 MFI and the “GPIb (CD42b)” value ([4]; E5555 100 ng/ml, Volunteers) was 157 ± 16 MFI. The “Platelet Aggregation, Whole Blood Collagen 1 μg/mL” value (“Platelet Aggregation” below) ([5]; E5555 20 ng/ml, CAD patients treated with ASA + clopidogrel) was 13 ± 5 ohms, the “Platelet Aggregation” value ([5]; E5555 20 ng/ml, CAD patients treated with ASA) was 11 ± 4 ohms and the “Platelet Aggregation” value ([5]; E5555 20 ng/ml, healthy volunteers) was 22 ± 5 ohms. The “Platelet Aggregation” value ([5]; E5555 50 ng/ml, CAD patients treated with ASA + clopidogrel) was 12 ± 7 ohms, the “Platelet Aggregation” value ([5]; E5555 50 ng/ml, CAD patients treated with ASA) was 14 ± 6 ohms and the “Platelet Aggregation” value ([5]; E5555 50 ng/ml, healthy volunteers) was 25 ± 7 ohms. For the same compound, the “Platelet Aggregation” value ([5]; E5555 100 ng/ml, CAD patients treated with ASA + clopidogrel) was 14 ± 4 ohms, the “Platelet Aggregation” value ([5]; E5555 100 ng/ml, CAD patients treated with ASA) was 12 ± 5 ohms and the “Platelet Aggregation” value ([5]; E5555 100 ng/ml, healthy volunteers) was 22 ± 6 ohms.

From patent US20100056519A1, “COMPOSITION AND METHOD FOR REDUCING PLATELET ACTIVATION AND FOR THE TREATMENT OF THROMBOTIC EVENTS” (priority 2008, published 2010)
